# Source: US11229664B2, “Treatment of myelosuppression” (priority 2012, dated 2022)
# Several values for one entry are separate records, joined by “and”; a condition that tells them apart may be missing. Equal values may be shown once. Read-outs that look alike come from different tables or passages of the source.
# Tests used:
# [1] = A2780 xenograft study: body weight; assay type: in vivo, athymic female mice; details: Group 3: 80 mg/kg IP QD 1, 8, 15, individual mice, 80 mg/kg
# Procedure: (§1) ODSH (50 mg/mL stock concentration) was made by Pyramid Laboratories, Inc. and stored at room temperature until use. As described further below, ODSH was administered either intravenously (IV), at a dose of 48 mg/kg and volume of 10 mL/kg, or subcutaneously (SC) at a dose of 24 mg/kg and volume of 5 ml/kg. Carboplatin obtained from a clinical supplier was stored at 4° C. until use. Carboplatin was administered by intraperitoneal injection (IP) at a dose of 80 mg/kg and volume of 10 mL/kg. Saline solution (0.9% NaCl) was used as a vehicle control for ODSH and administered by the same routes and in the same volumes as ODSH.
# (§2) Human ovarian cancer cell line A2780 was used in the murine xenograft experiments as follows. Approximately 5×10^6 A2780 cells were used per mouse, injected subcutaneously into the right flank in 0.1 mL of 50% Matrigel/50% media. The study was initiated when tumors reached a size of 90-130 mg. 40 mice were used, 10 per treatment regimen. The mice were normal athymic female mice, aged 6-7 weeks, housed in microisolator cages and maintained under pathogen-free conditions. Tumor and body weights were measured three times per week.
# (§3) Four treatment groups were studied.
# [2] = system: Human ovarian cancer cell line A2780; assay: A2780 human ovarian cancer xenograft model: tumor weight; assay type: in vivo, athymic female mice; set-up: key to Mouse status printed in place of tumor weight: FD = Found Dead; TS = Terminal Sacrifice; details: for Mouse status printed in place of tumor weight: Groups 2 and 3
# Procedure: as §1, §2, §3
# [3] = for Deaths: N = 10 per group
# Procedure: All experiments were conducted on female athymic nude mice (Hsd:Athymic Nude-Foxn1nu) supplied by Harlan (Indianapolis, Ind.). Mice were received at four weeks of age, 12-15 grams in weight, and were acclimated for seven days prior to handling. The mice were housed in microisolator cages (Lab Products, Seaford, Del.) and maintained under specific pathogen-free conditions. All procedures were carried out under appropriate institutional guidelines for animal care.
# Seven days following inoculation, tumors were measured using calipers and tumor weight was calculated using the animal study management software. […] Body weights were recorded when the mice were randomized and were taken twice weekly thereafter in conjunction with tumor measurements, on each of Days 1, 4, 8, 11, 15, 18, 22, 26, 30, 33, and 36.
# The study was terminated when the vehicle control reached an endpoint of 1500 mg, on Day 36.
# [4] = system: BxPC-3 pancreas tumor cell line; assay: BxPC-3 human pancreas tumor xenograft model: tumor weight, tumor growth inhibition (TGI); assay type: in vivo, female athymic nude mice
# Procedure: Compounds tested in the experiment were as follows. ODSH was made by Pyramid Laboratories, Inc. (Costa Mesa, Calif.). ODSH was provided at a stock concentration of 50 mg/ml and stored at room temperature until use. ODSH was diluted in a 0.9% NaCl solution (B. Braun Medical Inc., Irvine, Calif.) to a concentration of 2.4 mg/ml to deliver 24 mg/kg, in a 10 ml/kg dose volume when administered intravenously. A concentration of 4.8 mg/ml was formulated to deliver a 24 mg/kg dose at a 5 ml/kg dose volume when administered subcutaneously. ODSH was formulated fresh prior to each dose.
# Nab-paclitaxel was manufactured by Abraxis BioScience LLC (Bridgewater, N.J.) and diluted in a 0.9% NaCl solution to a concentration of 1.5 mg/ml to deliver 15 mg/kg, in a 10 ml/kg dose volume. All standard agent preparations were made fresh prior to their administration.
# BxPC-3 cells were obtained and prepared as follows. The BxPC-3 pancreas tumor cell line was received from American Type Culture Collection (ATCC, Manassas, Va.). Cultures were maintained in RPMI 1640 medium (Hyclone, Logan, Utah) supplemented with 5% fetal bovine serum. The cells were housed in a 5% CO2 atmosphere. The cultures were expanded in tissue culture flasks at a 1:3 split ratio until a sufficient amount of cells were harvested.
# BxPC-3 Human Pancreas Tumor Xenograft Model: Female athymic nude mice per treatment condition were inoculated subcutaneously in the right flank with 0.1 ml of a 50% RPMI 1640/50% Matrigel™ (BD Biosciences, Bedford, Mass.) mixture containing a suspension of BxPC-3 tumor cells (approximately 5×10^6 cells/mouse).
# Study Director V.1.7.54k (Study Log).
# Mean tumor growth inhibition (TGI) was calculated utilizing Formula A below (deaths were not included in the TGI calculations).
# All statistical analyses in the xenograft study were performed with GraphPad Prism® v4 software.
# IIa = IIa (Homo sapiens, UniProt P00734+P01008); details: cited from earlier work
# Xa = Xa (Homo sapiens, UniProt P00742); details: cited from earlier work
# anticoagulant activity = details: cited from earlier work
# anti-thrombin III = anti-thrombin III (Homo sapiens, UniProt P01008); details: cited from earlier work
# [5] = Total deaths on or before Day 26
# Sequence of anti-thrombin III (P01008 33-464, species assumed): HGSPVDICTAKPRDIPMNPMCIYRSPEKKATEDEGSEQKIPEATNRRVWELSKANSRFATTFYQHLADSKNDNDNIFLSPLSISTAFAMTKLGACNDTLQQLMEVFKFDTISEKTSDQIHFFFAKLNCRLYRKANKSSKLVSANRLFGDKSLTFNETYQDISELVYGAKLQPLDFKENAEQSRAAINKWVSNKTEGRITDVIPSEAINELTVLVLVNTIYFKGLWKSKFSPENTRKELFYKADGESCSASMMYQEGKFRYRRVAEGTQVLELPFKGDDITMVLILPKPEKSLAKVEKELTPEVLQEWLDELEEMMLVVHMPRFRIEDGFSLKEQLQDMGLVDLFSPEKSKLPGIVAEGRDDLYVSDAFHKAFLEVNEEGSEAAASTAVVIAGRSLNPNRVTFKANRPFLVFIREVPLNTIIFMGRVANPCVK
# Sequence of Xa (P01008 33-464 partner): as the sequence (P01008 33-464, species assumed) above
# Sequence of Xa (P00742 235-488 limits assumed): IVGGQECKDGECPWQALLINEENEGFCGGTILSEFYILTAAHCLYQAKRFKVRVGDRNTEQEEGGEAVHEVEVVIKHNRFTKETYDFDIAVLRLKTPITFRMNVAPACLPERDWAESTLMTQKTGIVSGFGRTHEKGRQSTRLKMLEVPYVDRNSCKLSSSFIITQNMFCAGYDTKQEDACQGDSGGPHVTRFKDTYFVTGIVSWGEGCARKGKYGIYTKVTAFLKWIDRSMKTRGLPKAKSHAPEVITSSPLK
molecule,measurement,setting,value
"N.N.O=C([O-])C1(C(=O)[O-])CCC1.[Pt+2] [Carboplatin, reference compound]","Individual weights, Day 1 Weight",[1]; Day 1 (baseline),23.2 g and 20.6 g and 22.6 g and 21.7 g and 20.7 g and 22.4 g and 19.7 g and 20.3 g and 21.6 g and 22.2 g
same,Day 4 Weight change,[1]; Day 4,−2.6% and −5.3% and −4.4% and −3.2% and 1.9% and −0.4% and −5.6% and −5.9% and −2.3% and −1.8%
same,"Individual weights, Day 4 Weight",[1]; Day 4,22.6 g and 19.5 g and 21.6 g and 21.0 g and 21.1 g (2×) and 22.3 g and 18.6 g and 19.1 g and 21.8 g
same,Day 6 Weight change,[1]; Day 6,−3.0% (2×) and −4.9% and 1.3% and −1.4% and 3.91% and −0.4% and −4.4% and −3.7% and −3.2%
same,"Individual weights, Day 6 Weight",[1]; Day 6,22.5 g and 19.6 g and 22.9 g and 21.4 g and 21.5 g (2×) and 22.3 g and 19.1 g and 19.4 g and 20.8 g
same,Day 8 Weight change,[1]; Day 8,2.2% (2×) and 0.5% (2×) and 6.2% and 1.4% and 5.3% and 1.5% and −1.0% and −1.4%
same,"Individual weights, Day 8 Weight",[1]; Day 8,23.7 g and 20.7 g and 24.0 g and 22.0 g and 23.8 g and 22.9 g and 20.0 g and 20.1 g and 21.3 g and 22.3 g
same,Day 11 Weight change,[1]; Day 11,−7.3% and −4.9% and 0.9% and −5.5% and 2.4% and −3.6% and −5.1% and −6.4% and −11.1% and −7.7%
same,"Individual weights, Day 11 Weight",[1]; Day 11,21.5 g and 19.6 g and 22.8 g and 20.5 g (2×) and 21.2 g and 21.6 g and 18.7 g and 19.0 g and 19.2 g
same,Day 14 Weight change,[1]; Day 14,−2.2% and 1.0% and 2.7% and −0.5% and 9.7% and 3.1% and −1.5% and −3.0% and −10.6% and −9.5%
same,"Individual weights, Day 14 Weight",[1]; Day 14,22.7 g (2×) and 20.0 g and 23.2 g and 21.6 g and 23.1 g and 19.4 g and 19.7 g and 19.3 g and 20.1 g
same,Day 18 Weight change,[1]; Day 18,−4.3% and −1.9% and −5.8% and −10.6% and 6.3% and 4.0% and −8.6% and −7.9% and −17.1% and −9.0%
same,"Individual weights, Day 18 Weight",[1]; Day 18,22.2 g and 20.2 g (2×) and 21.3 g and 19.4 g and 22.0 g and 23.3 g and 18.0 g and 18.7 g and 17.9 g
same,Day 21 Weight change,[1]; Day 21,−0.4% and 3.9% and −4.9% and −8.3% and 13.5% and 7.1% and −8.6% (2×) and −5.4% and −15.7%
same,"Individual weights, Day 21 Weight",[1]; Day 21,23.1 g and 21.4 g and 21.5 g and 19.9 g and 23.5 g and 24.0 g and 18.0 g and 19.2 g and 18.2 g and 20.3 g
same,Day 25 Weight change,[1]; Day 25,8.3% and −3.5% and −6.9% and −2.0% and −8.1%
same,"Individual weights, Day 25 Weight",[1]; Day 25,22.3 g and 21.8 g and 20.2 g and 19.9 g and 20.4 g
same,Day 28 Weight change,[1]; Day 28,11.7% and −1.8% and −2.8% and 3.0% and −8.6%
same,"Individual weights, Day 28 Weight",[1]; Day 28,23.0 g and 22.2 g and 21.1 g and 20.9 g and 20.3 g
same,"Tumor weight, Mean",[2]; Day 1,107.3 mg
same,"Tumor weight, Median",[2]; Day 1,105.6 mg
same,"Tumor weight, individual mice","[2]; Day 1, Mouse 1-10",104 mg and 105 mg and 106 mg and 110 mg and 113 mg and 116 mg and 127 mg and 94 mg and 96 mg and 102 mg
same,"Tumor weight, Mean",[2]; Day 4,148.2 mg
same,"Tumor weight, Median",[2]; Day 4,144.5 mg
same,"Tumor weight, individual mice","[2]; Day 4, Mouse 1-10",108 mg (2×) and 175 mg and 199 mg and 142 mg and 163 mg and 147 mg and 194 mg and 137 mg and 109 mg
same,"Tumor weight, Mean",[2]; Day 6,213.0 mg
same,"Tumor weight, Median",[2]; Day 6,215.6 mg
same,"Tumor weight, individual mice","[2]; Day 6, Mouse 1-10",114 mg and 264 mg and 239 mg and 223 mg and 300 mg and 208 mg and 256 mg and 200 mg and 157 mg and 169 mg
same,"Tumor weight, Mean",[2]; Day 8,356.5 mg
same,"Tumor weight, Median",[2]; Day 8,364.2 mg
same,"Tumor weight, individual mice","[2]; Day 8, Mouse 1-10",148 mg and 466 mg and 358 mg and 371 mg and 605 mg and 306 mg and 386 mg and 419 mg and 245 mg and 262 mg
same,"Tumor weight, Mean",[2]; Day 11,483.1 mg
same,"Tumor weight, Median",[2]; Day 11,508.5 mg
same,"Tumor weight, individual mice","[2]; Day 11, Mouse 1-10",103 mg and 539 mg and 499 mg and 419 mg and 813 mg and 555 mg and 542 mg and 517 mg and 442 mg and 402 mg
same,"Tumor weight, Mean",[2]; Day 14,719.3 mg
same,"Tumor weight, Median",[2]; Day 14,750.3 mg
same,"Tumor weight, individual mice","[2]; Day 14, Mouse 1-10","96 mg and 875 mg and 799 mg and 628 mg and 1,093 mg and 795 mg and 975 mg and 587 mg and 706 mg and 640 mg"
same,"Tumor weight, Mean",[2]; Day 18,984.1 mg
same,"Tumor weight, Median",[2]; Day 18,"1,051.0 mg"
same,"Tumor weight, individual mice","[2]; Day 18, Mouse 1-10","84 mg and 1,349 mg and 1,218 mg and 713 mg and 1,806 mg and 1,160 mg and 1,168 mg and 942 mg and 730 mg and 671 mg"
same,"Tumor weight, Mean",[2]; Day 21,"1,327.3 mg"
same,"Tumor weight, Median",[2]; Day 21,"1,328.6 mg"
same,"Tumor weight, individual mice","[2]; Day 21, Mouse 1-10","112 mg and 1,790 mg and 1,596 mg and 834 mg and 2,675 mg and 1,626 mg and 1,439 mg and 1,218 mg and 941 mg and 1,040 mg"
same,"Tumor weight, Mean",[2]; Day 25,"1,761.3 mg"
same,"Tumor weight, Median",[2]; Day 25,"1,921.0 mg"
same,"Tumor weight, individual mice","[2]; Day 25, Mouse 1-10","2,403 mg and 2,127 mg and 1,109 mg and 1,921 mg and 1,246 mg"
same,Mouse status printed in place of tumor weight,"[2]; Day 25, individual mice",TS
same,"Tumor weight, Mean",[2]; Day 28,"2,243.0 mg"
same,"Tumor weight, Median",[2]; Day 28,"2,461.0 mg"
same,"Tumor weight, individual mice","[2]; Day 28, Mouse 1-10","2,877 mg and 2,599 mg and 1,539 mg and 2,461 mg and 1,739 mg"
same,Mouse status printed in place of tumor weight,"[2]; Day 28, individual mice",TS
Nc1ccn([C@@H]2O[C@H](CO)[C@@H](O)C2(F)F)c(=O)n1 [Gemcitabine],Deaths,[3]; [5],0
same,Deaths,[3]; Total deaths on or before Day 36,0
same,Day by which the mice recovered their weight,"[3]; mouse, in vivo",≤ 18 days
same,Day on which maximum weight loss was reached,"[3]; mouse, in vivo",11 days
same,Maximum weight loss,"[3]; mouse, in vivo",8.7%
same,Starting Weight,"[3]; mouse, in vivo",22.48 g
"O=C1[O][Pt]2([NH][C@@H]3CCCC[C@H]3[NH]2)[O]C1=O [Oxaliplatin, reference compound]","Difference in tumor weight compared to vehicle control, Day 26","[4]; ANOVA with Tukey's Multiple Comparison Test, BxPC-3 xenograft",No significant difference
same,"Tumor weight, Mean","[4]; Day 26, Group 3: oxaliplatin 10 mg/kg IV wkly x4 (alone to Day 26), from Day 26 gemcitabine 80 mg/kg IP + nab-paclitaxel 15 mg/kg IV",635.0 mg
same,"TGI (mean tumor growth inhibition), Day 26","[4]; Day 26 vs Day 1, compared to vehicle control, BxPC-3 xenograft, ODSH 24 mg/kg BID, oxaliplatin 10 mg/kg, gemcitabine 80 mg/kg (Table 1)",8.0%
same,Day 26 Tumor Weight,"[4]; Table 14, treatment administered until Day 26",635.0 ± 52.3 mg
same,Average Weight,[3]; Day 1,20.82 g
same,% Weight Loss or Gain,[3]; Day 4,−2.02%
same,% Weight Loss or Gain,[3]; Day 8,−0.82%
same,Average Weight,[3]; Day 11,20.12 g
same,% Weight Loss or Gain,[3]; Day 15,−0.05%
same,Average Weight,[3]; Day 15,20.81 g
same,% Weight Loss or Gain,[3]; Day 18,−1.78%
same,Deaths,[3]; [5],0
same,Starting Weight,"[3]; group mean body weight at start, dose, schedule and route per group as in table",20.82 g
same,Mice with bruising on the tails or abdomen (site of injection),"[3]; ten mice per group, BxPC-3 xenograft study",One mouse
unfractionated heparin,anti-IIa activity,IIa,165-190 U/mg
same,anti-Xa activity,Xa,165-190 U/mg
same,"Anticoagulant activity, USP anticoagulant assay",anticoagulant activity,165-190 U/mg
same,"Kd, affinity for anti-thrombin III",anti-thrombin III,22 µg/mL
same,Kd,"anti-thrombin III; read-out: Kd, affinity for anti-thrombin III",1560 nM
